Experimental findings from patent US9821002B2, “Method for alleviating radiation injury with isorhamnetin-3-O-β-D-glucoside” (Sinotai Oncology Associate., Ltd., priority 2015, dated 2017) are described below.

In experiment [1] the test system is cleaved caspase-9 in BNL CL.2 cells. Briefly: Expression profile of cleaved caspase-9 (Western Blotting) after X-ray irradiation. As to conditions: 5 and 30 μM, 2 h pretreatment, X-ray 15 Gy, 48 hours, normalized to β-actin. In kind it is cell-based, mouse. The text has this:
(§1) Four groups of BNL CL.2 cells (i.e., a normal control group referred to as Normal Control Group 1-A, an X-ray control group referred to as X-Ray Control Group 1-A, and two experimental groups referred to as Experimental Groups 1-A to 2-A), and six groups of NMuMG cells (i.e., a normal control group referred to as Normal Control Group 1-B, an X-ray control group referred to as X-Ray Control Group 1-B, two isorhamnetin groups referred to as Isorhamnetin Groups 1 to 2, and two experimental groups referred to as Experimental Groups 1-B to 2-B), were prepared based on the procedure set forth in “Source and cultivation of cell lines” of “Experimental materials”. BNL CL.2 cells in each group were cultivated using 5 mL of a corresponding medium shown in Table 1 and a 6-cm Petri dish in an amount of 2×10^5 cells per dish. […]
(§2) Subsequently, the culture in each group was cultivated in an incubator (37° C., 5% CO2) for 48 hours, and 120 μL of lysis buffer containing CelLytic™ M protein extraction reagent (Sigma-Aldrich) and proteinase inhibitor cocktail (Sigma-Aldrich) was added to the culture in each group, followed by mixing evenly. […] Protein concentration in the total protein sample was determined by means of the Bio-Rad Protein Assay Kit. […]
(§3) Subsequently, ImageScanner Imaging Software was used for analysis, such that the corresponding protein expression level was semi-quantitatively calculated. […]
On the technique in general: Immunoblotting shows a protein as a band on a membrane.

Experiment [2] has as its system cleaved caspase-9 in NMuMG cells. The experiment is described as above. The experiment is classed as cell-based, mouse. As to conditions: 15 and 30 μM, 2 h pretreatment, X-ray 15 Gy, 48 hours, normalized to β-actin.
Excerpt: as §1, §2, §3

For `COc1cc(-c2oc3cc(O)cc(O)c3c(=O)c2O[C@@H]2O[C@H](CO)[C@@H](O)[C@H](O)[C@H]2O)ccc1O` [isorhamnetin-3-O-β-D-glucoside], the “expression level of cleaved caspase-9 versus X-ray control group” value in experiment [1] and in experiment [2] was “significant reduction in expression level of cleaved caspase-9” in each case.
